The values below come from patent US9345742B2, “Aminostatin derivatives for the treatment of arthrosis” (MERCK PATENT GMBH, priority 2011, dated 2016).

Test [1] addresses recombinant human renin (Homo sapiens (Human), UniProt P00797). Description: In-vitro fluorescence assay for identification of renin-inhibitory activity. The class given is biochemical. To be noted: recombinant human renin 10 nM, pH 7.2; read-out: Renin selectivity IC50. In a few lines:
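Recombinant human renin (10 nM) pre-incubated 15 min at RT with serially diluted compound in 50 mM Mops pH 7.2, 1.5% DMSO, 0.1% Igepal, 0.5% BSA; Edans/Dabcyl FRET peptide (5 µM final) added, 60 min at 37 °C; cleavage read as fluorescence increase (ex 340/em 495 nm) against no-compound wells.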

Test [2] concerns the target cathepsin D isolated from the human liver (Homo sapiens (Human), UniProt P07339). Description: In-vitro fluorescence assay for identification of cathepsin D inhibitors. The class given is biochemical. To be noted: cathepsin D 1.4 nM, pH 5.5; read-out: CatD assay IC50-. In a few lines:
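A FRET-quenched MCA/Dnp peptide (5 μM final) was cleaved by 1.4 nM liver-derived human cathepsin D at pH 5.5 in sodium acetate buffer containing CHAPS and 1.25% DMSO. Enzyme and compound dilutions were first incubated 10 min.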

Molecules are shown by their SMILES.

cathepsin D isolated from the human liver, sequence (P07339 65-161): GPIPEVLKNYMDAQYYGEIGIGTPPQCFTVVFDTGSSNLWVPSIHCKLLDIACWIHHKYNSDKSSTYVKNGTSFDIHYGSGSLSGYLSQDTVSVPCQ
cathepsin D isolated from the human liver, sequence (P07339 169-412): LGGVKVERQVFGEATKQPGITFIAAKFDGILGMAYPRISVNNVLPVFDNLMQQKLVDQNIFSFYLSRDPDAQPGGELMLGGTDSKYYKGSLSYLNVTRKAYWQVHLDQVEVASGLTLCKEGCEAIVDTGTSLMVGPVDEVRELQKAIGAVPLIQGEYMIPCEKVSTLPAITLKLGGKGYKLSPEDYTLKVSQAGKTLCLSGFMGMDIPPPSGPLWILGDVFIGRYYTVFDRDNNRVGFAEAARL
recombinant human renin, sequence (P00797 67-406): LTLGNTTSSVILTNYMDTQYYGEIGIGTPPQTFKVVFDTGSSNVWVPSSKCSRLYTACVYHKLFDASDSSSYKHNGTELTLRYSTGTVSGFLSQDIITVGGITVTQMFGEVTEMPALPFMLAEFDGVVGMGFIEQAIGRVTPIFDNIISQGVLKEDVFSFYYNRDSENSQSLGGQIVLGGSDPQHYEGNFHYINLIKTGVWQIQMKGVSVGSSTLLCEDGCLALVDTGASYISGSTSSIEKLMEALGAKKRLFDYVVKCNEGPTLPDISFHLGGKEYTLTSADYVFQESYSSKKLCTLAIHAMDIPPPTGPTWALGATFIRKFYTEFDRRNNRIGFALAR

As to `CCC(CC)NC(=O)[C@@H](NC(=O)C[C@H](N)[C@H](Cc1ccccc1)NC(=O)[C@@H](NC(=O)[C@H](CC(C)C)NC(=O)CC(C)C)C(C)C)[C@@H](C)CC` [Compound 39, N-[(1S,2S)-1-(1-Ethylpropylcarbamoyl)-2-methylbutyl]-(S)-3-(S)-amino-4-{(S)-3-methyl-2-[(S)-4-methyl-2-(3-methylbutyryl-amino)pentanoylamino]butyrylamino}-5-phenylpentanamide], the IC50 in test [1] is greater than 30000 nM; in test [2] it was 9.9 nM.
